Results taken from PubChem BioAssay AID256 (DTP/NCI, 2004).
Values joined by “and” are separate entries in the source; they are usually repeats but may differ in a detail not shown here. Equal values may be shown once. Toxic doses and inconclusive results are not listed. How the source made its calls: active means survival T/C of 150% or more; inactive means T/C below 125% in these data.

Test system: CD2F1 mice, L1210 leukemia ip, survival T/C
Test: NCI In Vivo Anticancer Drug Screen. Data for tumor model L1210 Leukemia (intraperitoneal) in CD2F1 (CDF1) mice
Conditions: endpoint: mean survival time, higher = longer survival
Method in brief: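 Read-out first: treated-group measurement over vehicle-control measurement, expressed as a ratio. Animals bore a transplanted tumor line and were dosed with compound or vehicle.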

[1] = dose: 100.0 mg/kg/injection, schedule: Q04DX002 (ip), vehicle: saline with Tween-80
[2] = dose: 25.0 mg/kg/injection, schedule: Q01DX009 (ip), vehicle: saline
[3] = dose: 50.0 mg/kg/injection, schedule: Q01DX009 (ip), vehicle: saline
[4] = dose: 100.0 mg/kg/injection, schedule: Q01DX009 (ip), vehicle: saline with Tween-80
[5] = dose: 100.0 mg/kg/injection, schedule: Q04DX003 (ip), vehicle: saline with Tween-80
[6] = dose: 200.0 mg/kg/injection, schedule: Q01DX009 (ip), vehicle: saline with Tween-80
[7] = dose: 200.0 mg/kg/injection, schedule: Q04DX003 (ip), vehicle: saline with Tween-80
[8] = dose: 400.0 mg/kg/injection, schedule: Q04DX003 (ip), vehicle: saline with Tween-80

Measured: T/C

COc1cc(CNC(=O)CCCC2CCC2)ccc1O
inactive: dose: 3.13 mg/kg/injection, schedule: Q01DX009 (ip), vehicle: saline with Tween-80 96 % of control | dose: 6.25 mg/kg/injection, schedule: Q01DX009 (ip), vehicle: saline with Tween-80 94 % of control and 97 % of control | dose: 6.25 mg/kg/injection, schedule: Q04DX003 (ip), vehicle: saline with Tween-80 96 % of control | dose: 12.5 mg/kg/injection, schedule: Q01DX009 (ip), vehicle: saline with Tween-80 86 % of control and 97 % of control | dose: 12.5 mg/kg/injection, schedule: Q04DX003 (ip), vehicle: saline with Tween-80 101 % of control | dose: 25.0 mg/kg/injection, schedule: Q01DX009 (ip), vehicle: saline with Tween-80 100 % of control | dose: 25.0 mg/kg/injection, schedule: Q04DX003 (ip), vehicle: saline with Tween-80 95 % of control

COC(=O)C[N+]1(C)C2CCC1CC(Cl)C2 (stereo not drawn)
inactive: dose: 12.5 mg/kg/injection, schedule: Q01DX001 (ip), vehicle: saline 109 % of control | dose: 25.0 mg/kg/injection, schedule: Q01DX001 (ip), vehicle: saline 113 % of control

COc1cc([N+](=O)[O-])ccc1NC=O
inactive: dose: 25.0 mg/kg/injection, schedule: Q04DX002 (ip), vehicle: saline with Tween-80 103 % of control | dose: 50.0 mg/kg/injection, schedule: Q04DX002 (ip), vehicle: saline with Tween-80 103 % of control | [1] 90 % of control

CCCCCCCCP(=O)(N1CC1C)N1CC1C (stereo not drawn)
inactive: dose: 6.25 mg/kg/injection, schedule: Q01DX009 (ip), vehicle: saline 98 % of control | dose: 12.5 mg/kg/injection, schedule: Q01DX009 (ip), vehicle: saline 94 % of control | [2] 96 % of control | [3] 102 % of control

O=C(C=[As](c1ccccc1)(c1ccccc1)c1ccccc1)c1ccccc1
inactive: dose: 75.0 mg/kg/injection, schedule: Q01DX001 (ip), vehicle: other 91 % of control | dose: 150.0 mg/kg/injection, schedule: Q01DX001 (ip), vehicle: other 100 % of control | dose: 300.0 mg/kg/injection, schedule: Q01DX001 (ip), vehicle: other 91 % of control

CC(=O)N(c1c(F)c(F)cc(F)c1F)c1c(F)c(F)cc(F)c1F
inactive: [4] 95 % of control | [5] 104 % of control | [6] 103 % of control | [7] 102 % of control | dose: 400.0 mg/kg/injection, schedule: Q01DX009 (ip), vehicle: saline with Tween-80 95 % of control | [8] 98 % of control

Cc1ccccc1NC(=O)CN(C)C
inactive: dose: 100.0 mg/kg/injection, schedule: Q01DX001 (ip), vehicle: other 98 % of control | dose: 200.0 mg/kg/injection, schedule: Q01DX001 (ip), vehicle: other 103 % of control

O=C(O)c1[nH]nc(-c2ccc([N+](=O)[O-])cc2)c1[N+](=O)[O-]
inactive: dose: 4.7 mg/kg/injection, schedule: Q01DX005 (ip), vehicle: water 86 % of control | dose: 9.4 mg/kg/injection, schedule: Q01DX005 (ip), vehicle: water 90 % of control | dose: 18.8 mg/kg/injection, schedule: Q01DX005 (ip), vehicle: water 90 % of control | dose: 37.5 mg/kg/injection, schedule: Q01DX005 (ip), vehicle: water 104 % of control | dose: 50.0 mg/kg/injection, schedule: Q01DX005 (ip), vehicle: water 97 % of control | dose: 75.0 mg/kg/injection, schedule: Q01DX005 (ip), vehicle: water 93 % of control | dose: 100.0 mg/kg/injection, schedule: Q01DX005 (ip), vehicle: water 93 % of control | dose: 200.0 mg/kg/injection, schedule: Q01DX005 (ip), vehicle: water 89 % of control | dose: 400.0 mg/kg/injection, schedule: Q01DX005 (ip), vehicle: water 101 % of control

CN1C2CCC1CC(OC(=O)c1ccccc1)C2 (stereo not drawn)
inactive: dose: 100.0 mg/kg/injection, schedule: Q04DX002 (ip), vehicle: Klucel (hydroxypropylcellulose) (HPC) 121 % of control | dose: 200.0 mg/kg/injection, schedule: Q04DX002 (ip), vehicle: Klucel (hydroxypropylcellulose) (HPC) 90 % of control | dose: 400.0 mg/kg/injection, schedule: Q04DX002 (ip), vehicle: Klucel (hydroxypropylcellulose) (HPC) 100 % of control

NC(=S)c1c2ccccc2nn1C1OC(CO)C(O)C1O (stereo not drawn)
inactive: dose: 100.0 mg/kg/injection, schedule: Q01DX005 (ip), vehicle: saline 98 % of control | dose: 200.0 mg/kg/injection, schedule: Q01DX005 (ip), vehicle: saline 101 % of control

CN1NC2(O)C(=O)N(C3CCCCC3)CC2C1c1ccccc1 (stereo not drawn)
inactive: [5] 86 % of control | [7] 93 % of control | [8] 101 % of control

OCC#CCO
inactive: dose: 12.0 mg/kg/injection, schedule: Q01DX009 (ip), vehicle: saline 94 % of control | [2] 93 % of control | [3] 104 % of control

COC1=CCC2C(=O)C=CC(=O)C2C1 (stereo not drawn)
inactive: dose: 12.5 mg/kg/injection, schedule: Q01DX005 (ip), vehicle: Klucel (hydroxypropylcellulose) (HPC) 95 % of control | dose: 25.0 mg/kg/injection, schedule: Q01DX005 (ip), vehicle: Klucel (hydroxypropylcellulose) (HPC) 95 % of control | dose: 50.0 mg/kg/injection, schedule: Q01DX005 (ip), vehicle: Klucel (hydroxypropylcellulose) (HPC) 93 % of control | dose: 100.0 mg/kg/injection, schedule: Q01DX005 (ip), vehicle: Klucel (hydroxypropylcellulose) (HPC) 91 % of control | dose: 200.0 mg/kg/injection, schedule: Q01DX005 (ip), vehicle: Klucel (hydroxypropylcellulose) (HPC) 90 % of control

COc1ccc(NC(=O)Oc2cccc(C)c2)cc1
inactive: [1] 90 % of control | dose: 200.0 mg/kg/injection, schedule: Q04DX002 (ip), vehicle: saline with Tween-80 97 % of control | dose: 400.0 mg/kg/injection, schedule: Q04DX002 (ip), vehicle: saline with Tween-80 93 % of control

[Cl][Pt+2][Cl].[NH-]C1CCCC1.[NH-]C1CCCC1
inactive: dose: 5.0 mg/kg/injection, schedule: Q01DX009 (ip), vehicle: Klucel (hydroxypropylcellulose) (HPC) 103 % of control | dose: 10.0 mg/kg/injection, schedule: Q01DX009 (ip), vehicle: Klucel (hydroxypropylcellulose) (HPC) 104 % of control | dose: 20.0 mg/kg/injection, schedule: Q01DX009 (ip), vehicle: Klucel (hydroxypropylcellulose) (HPC) 116 % of control and 104 % of control and 108 % of control | dose: 20.0 mg/kg/injection, schedule: Q04DX003 (ip), vehicle: Klucel (hydroxypropylcellulose) (HPC) 103 % of control | dose: 40.0 mg/kg/injection, schedule: Q01DX001 (ip), vehicle: Klucel (hydroxypropylcellulose) (HPC) 96 % of control | dose: 40.0 mg/kg/injection, schedule: Q01DX009 (ip), vehicle: Klucel (hydroxypropylcellulose) (HPC) 115 % of control and 104 % of control | dose: 40.0 mg/kg/injection, schedule: Q04DX003 (ip), vehicle: Klucel (hydroxypropylcellulose) (HPC) 103 % of control | dose: 80.0 mg/kg/injection, schedule: Q01DX001 (ip), vehicle: Klucel (hydroxypropylcellulose) (HPC) 105 % of control | dose: 80.0 mg/kg/injection, schedule: Q01DX009 (ip), vehicle: Klucel (hydroxypropylcellulose) (HPC) 121 % of control and 124 % of control | dose: 80.0 mg/kg/injection, schedule: Q04DX003 (ip), vehicle: Klucel (hydroxypropylcellulose) (HPC) 111 % of control | dose: 160.0 mg/kg/injection, schedule: Q01DX001 (ip), vehicle: Klucel (hydroxypropylcellulose) (HPC) 102 % of control | dose: 160.0 mg/kg/injection, schedule: Q01DX009 (ip), vehicle: Klucel (hydroxypropylcellulose) (HPC) 115 % of control | dose: 160.0 mg/kg/injection, schedule: Q04DX003 (ip), vehicle: Klucel (hydroxypropylcellulose) (HPC) 111 % of control | dose: 320.0 mg/kg/injection, schedule: Q01DX001 (ip), vehicle: Klucel (hydroxypropylcellulose) (HPC) 106 % of control | dose: 320.0 mg/kg/injection, schedule: Q01DX009 (ip), vehicle: Klucel (hydroxypropylcellulose) (HPC) 115 % of control and 103 % of control | dose: 320.0 mg/kg/injection, schedule: Q04DX003 (ip), vehicle: Klucel (hydroxypropylcellulose) (HPC) 108 % of control | dose: 640.0 mg/kg/injection, schedule: Q01DX001 (ip), vehicle: Klucel (hydroxypropylcellulose) (HPC) 114 % of control

CSC(=S)N(C)/N=C/c1ccccn1
inactive: [4] 98 % of control | [6] 96 % of control

NC(CSC(c1ccccc1)(c1ccccc1)c1cccc2ccccc12)C(=O)O (stereo not drawn)
inactive: [2] 100 % of control | [3] 100 % of control | dose: 100.0 mg/kg/injection, schedule: Q01DX009 (ip), vehicle: saline 110 % of control | dose: 200.0 mg/kg/injection, schedule: Q01DX009 (ip), vehicle: saline 102 % of control
